Data on 19 compounds can be found in PubChem BioAssay AID602275 (The Scripps Research Institute Molecular Screening Center, 2012).

“And” between values parts separate entries of the source, which are not always exact repeats. Identical values can stand only once. The source made the active and inactive calls. The rule behind the calls is not given here.

One assay has as its target NS3h 1b[con1]. Description: HCV NS3 helicase inhibition across viral strains, late-stage follow-up, selectivity assay for HCV NS3 helicase inhibitor project, biochemical, real-time fluorescence, strains con1 and JFH1, set 3 (AID 602275). The conditions noted are these: Recombinant NS3h, real-time fluorescence helicase unwinding.
The next assay concerns the target NS3h 2a[JFH1]. The assay is described as above. Particulars: Recombinant NS3h, real-time fluorescence helicase unwinding.

Usually IC50 stands for the concentration that inhibits the measured activity by half. `Cc1ccc2c(sc(-c3ccc4c(c3)sc(-c3ccc5c(c3)sc(-c3ccc(N(C)C)cc3)[n+]5C)[n+]4C)[n+]2C)c1S(=O)(=O)O` (tested in a mixture with another compound): the IC50 on NS3h 1b[con1] was 23.8 µM; on NS3h 2a[JFH1], 15.6 µM.
In the same order, the values of `CS(=O)(=O)c1ccc2nc(NC(=O)c3ccc4ncsc4c3)sc2c1` are 26.8 µM and 21.3 µM.
In the same order, the values of `Cc1ccc2nc(-c3ccc4nc(NC(=O)c5ccc6ncoc6c5)sc4c3)sc2c1` are “inactive” and “inactive”.
Turning to `Cc1ccc2nc(-c3ccc4nc(-c5ccc(N(C)C(=O)c6ccc7ccccc7c6)cc5)sc4c3)sc2c1S(=O)(=O)O`, the half-inhibitory concentration (IC50) on NS3h 1b[con1] is 14.4 µM; on NS3h 2a[JFH1], 13.5 µM.
The matching figures for `Cc1ccc2nc(-c3ccc4nc(-c5ccc(NC(=O)c6ccc(N)cc6)cc5)sc4c3)sc2c1S(=O)(=O)O`: 10.3 µM and 5.3 µM.
In the same order, the values of `Cc1ccc2nc(-c3ccc4nc(-c5ccc(NC(=O)c6cc(F)ccc6C(F)(F)F)cc5)sc4c3)sc2c1S(=O)(=O)O` are 19 µM and 16.6 µM.
The matching figures for `Cc1ccc2nc(-c3ccc4nc(-c5ccc(NC(=O)c6cccc(Cl)c6)cc5)sc4c3)sc2c1S(=O)(=O)O`: 2.6 µM and 3.9 µM.
In the case of `Cc1ccc2nc(-c3ccc4nc(-c5ccc(NC(=O)c6ccc(Br)cc6)cc5)sc4c3)sc2c1S(=O)(=O)O`, the IC50 at NS3h 1b[con1] was 5.2 µM; at NS3h 2a[JFH1], 7.4 µM.
In the same order, the values of `O=C(CCCCCCC(=O)Nc1ccc(-c2nc3ccccc3[nH]2)cc1)Nc1ccc(-c2nc3ccccc3[nH]2)cc1` are 7.5 µM and 4.7 µM.
The matching figures for `Cc1ccc2nc(-c3ccc4nc(-c5ccc(NCc6ccccc6)cc5)sc4c3)sc2c1S(=O)(=O)O`: 11 µM and 13.5 µM.
Turning to `Cc1ccc2nc(-c3ccc4nc(-c5ccc(NC(=O)c6ccc(C(F)(F)F)c(F)c6)cc5)sc4c3)sc2c1S(=O)(=O)O`, the half-maximal inhibitory concentration (IC50) at NS3h 1b[con1] is 17.4 µM; at NS3h 2a[JFH1] it was 13 µM.
The matching figures for `Cc1ccc2nc(-c3ccc4nc(-c5ccc(NC(=O)c6ccc7nc(-c8ccc(N)cc8)sc7c6)cc5)sc4c3)sc2c1S(=O)(=O)O`: 5.5 µM and 3.2 µM.
The matching figures for `Cc1ccc2nc(-c3ccc4nc(-c5ccc(NC(=O)c6ccc(C(C)(C)C)cc6)cc5)sc4c3)sc2c1S(=O)(=O)O`: 8.2 µM and 5 µM.
On to `Cc1ccc2nc(-c3ccc4nc(-c5ccc(NC(=O)c6ccc7nc(-c8ccc(NC(=O)OCC9c%10ccccc%10-c%10ccccc%109)cc8)sc7c6)cc5)sc4c3)sc2c1S(=O)(=O)O`, for which the half-inhibitory concentration (IC50) at NS3h 1b[con1] was 4 µM and 28.9 µM; on NS3h 2a[JFH1] it was 1.7 µM and 0.8 µM.
For the compound `Cc1ccc2nc(-c3ccc4nc(-c5ccc(NC(=O)c6ccc7ncoc7c6)cc5)sc4c3)sc2c1S(=O)(=O)O`, the IC50 at NS3h 1b[con1] is 3.6 µM; on NS3h 2a[JFH1], 6.4 µM.
In the same order, the values of `Cc1ccc2nc(-c3ccc(NC(=O)c4ccc(NC(=O)c5ccc(N)cc5)cc4)cc3)sc2c1S(=O)(=O)O` are 29.4 µM and 25.5 µM.
In the case of `Cc1ccc(C(=O)Nc2ccc(-c3nc4ccc(-c5nc6ccc(C)c(S(=O)(=O)O)c6s5)cc4s3)cc2)cc1`, the figures for the IC50 at NS3h 1b[con1] and at NS3h 2a[JFH1] were 3.3 µM and 2.5 µM, respectively.
In the same order, the values of `Cc1ccc2nc(-c3ccc(NC(=O)c4ccc(NC(=O)c5ccccc5)cc4)cc3)sc2c1S(=O)(=O)O` are “inactive” and “inactive”.
Regarding `COc1ccc2sc(NC(=O)c3ccc4ncsc4c3)nc2c1`, the outcome at NS3h 1b[con1] and at NS3h 2a[JFH1] was inactive.
